Test results as given in ChEMBL document CHEMBL1201862, “PubChem BioAssay data set” (2004).
Calls of active or inactive are those of the source.

What was measured:
Streptococcus [1] = assay: Group A Streptococcus viability loss, dose response, counter-screen for streptokinase expression inhibitor project, luminescence, BacTiterGlo (AID 1915); type: functional, organism-based;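 also: potency for reduction of bacterial viability or growth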
[2] = tested on: Streptococcus sp. 'group A'; assay: growth inhibition of control SK(-) GAS strain, dose response, counter-screen for streptokinase expression inhibitor project, luminescence, kanamycin, BacTiterGlo, confirmation (AID 1900); type: functional, organism-based
Streptococcus [3] = assay: Luminescence Microorganism-Based Dose Response Follow up to Identify Compounds Cytotoxic to Streptococcus. [Related pubchem assays: 1677 (Project Summary), 1915, 1914, 1902 (Retest at Dose), 1900 (Counter Screen), 1662 (Primary HTS)]; type: functional, organism-based
Streptokinase A = biological target: T1, Streptokinase A (Streptococcus pyogenes serotype M1, UniProt P10520); assay: S. pyogenes streptokinase expression inhibitors, potency, dose response, plasminogen activation absorbance, OD405 (AID 1914); type: functional, Streptococcus pyogenes M1 GAS;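 also: secreted streptokinase activity via plasminogen activation per viability signal from cell pellet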
T1 sequence (P10520 whole entry): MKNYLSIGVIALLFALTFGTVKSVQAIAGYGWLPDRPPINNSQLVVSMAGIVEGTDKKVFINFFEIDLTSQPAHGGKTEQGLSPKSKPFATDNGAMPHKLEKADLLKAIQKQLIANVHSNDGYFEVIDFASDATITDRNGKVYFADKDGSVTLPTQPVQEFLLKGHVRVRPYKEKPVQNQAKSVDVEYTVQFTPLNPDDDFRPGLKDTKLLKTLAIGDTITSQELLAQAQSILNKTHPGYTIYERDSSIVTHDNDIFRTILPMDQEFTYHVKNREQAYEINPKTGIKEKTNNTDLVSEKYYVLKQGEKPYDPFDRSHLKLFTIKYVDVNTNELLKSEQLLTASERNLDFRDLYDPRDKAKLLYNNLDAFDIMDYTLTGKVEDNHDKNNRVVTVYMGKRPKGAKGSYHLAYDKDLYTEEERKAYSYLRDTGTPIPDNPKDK

[4] = cytotoxicity in OVCAR4 cells, dose response, cytotoxicity control for PAX8 inhibitor project, cell-based, plate reader, dry powder, SA11 (AID 743150); type: functional; settings: OVCAR-4
[5] = A2780 ovarian cancer cell cytotoxicity, dose response, cytotoxicity control, plate reader, dry powder samples (AID 743046); type: functional, cell-based
[6] = cytotoxicity toward DRD oncogenic fibroblasts, dose response, cell-based, non-viral oncogenic, luminescence (AID 1934); type: functional; settings: Homo sapiens
[7] = NIH:OVCAR-3 ovarian cancer cell cytotoxicity, dose response, PAX8 inhibitor project, plate reader, dry powder samples (AID 743044); type: functional, cell-based
[8] = cytotoxicity in COV434 cells, dose response, cytotoxicity control for PAX8 inhibitor project, cell-based, plate reader, dry powder, SA7 (AID 743145); type: functional
[9] = Luminescence-based dose response cell-based high throughput screening assay for cytotoxic compounds using the IEC-6 intestinal epithelial cell line. [Related pubchem assays: 1858 (Summary AID.), 1825 (Counterscreen.), 1907 (Confirmation screen.)]; type: functional
[10] = inhibitors of SNCA 5'UTR-driven reporter translation, confirmation, H4 neuroglioma cells, luminescence (AID 1988); type: functional, cell-based
cells = type: functional, cell-based
Cysteine protease ATG4B = biological target: T2, Cysteine protease ATG4B (Homo sapiens, UniProt Q9Y4P1); assay: ATG4B protease inhibitors, dose response, biochemical, fluorescence, set 2 (AID 588584); type: functional
T2 sequence (Q9Y4P1 whole entry): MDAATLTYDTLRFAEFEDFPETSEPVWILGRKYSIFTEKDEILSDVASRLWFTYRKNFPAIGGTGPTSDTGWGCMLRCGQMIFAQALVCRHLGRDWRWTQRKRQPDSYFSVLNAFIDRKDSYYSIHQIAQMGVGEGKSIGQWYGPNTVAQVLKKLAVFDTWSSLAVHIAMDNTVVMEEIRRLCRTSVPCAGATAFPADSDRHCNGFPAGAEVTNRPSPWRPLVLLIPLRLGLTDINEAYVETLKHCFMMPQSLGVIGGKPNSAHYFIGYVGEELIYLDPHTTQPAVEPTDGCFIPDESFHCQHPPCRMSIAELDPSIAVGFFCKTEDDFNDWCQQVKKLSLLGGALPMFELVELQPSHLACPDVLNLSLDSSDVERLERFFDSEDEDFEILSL

[11] = inhibitors of SNCA 5'UTR-driven translation, confirmation, luminescence, H4 neuroglioblastoma cells, dose confirmation (AID 2454); type: functional, cell-based;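 also: H4 neuroglioblastoma cells carrying an alpha-synuclein 5'UTR luciferase reporter; potency for inhibition of the luciferase signal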
Paired box protein Pax-8 = Paired box protein Pax-8 (Homo sapiens, UniProt Q06710); assay: inhibitors of PAX8-driven TPO luciferase reporter, dose response, RMG-I cells, cherry-pick (AID 687027); type: functional, cell-based;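 also: luciferase reporter driven by Pax8 target thyroperoxidase promoter measured by SteadyGlo luminescence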
Chain of Paired box protein Pax-8 (Q06710 whole entry): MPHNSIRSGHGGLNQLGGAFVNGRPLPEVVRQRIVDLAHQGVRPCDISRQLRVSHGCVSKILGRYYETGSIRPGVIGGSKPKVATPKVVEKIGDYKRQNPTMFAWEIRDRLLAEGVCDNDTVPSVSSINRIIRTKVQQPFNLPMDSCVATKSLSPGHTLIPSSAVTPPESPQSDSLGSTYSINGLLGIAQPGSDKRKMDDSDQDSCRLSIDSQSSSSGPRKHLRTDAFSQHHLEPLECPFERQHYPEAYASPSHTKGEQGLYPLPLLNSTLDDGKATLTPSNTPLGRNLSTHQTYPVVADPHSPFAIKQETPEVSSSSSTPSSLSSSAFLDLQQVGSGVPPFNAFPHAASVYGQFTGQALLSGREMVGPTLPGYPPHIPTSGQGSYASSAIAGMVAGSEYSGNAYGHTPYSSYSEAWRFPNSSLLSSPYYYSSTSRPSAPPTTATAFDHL

[12] = PAX2 cell-based inhibition, dose response, selectivity assay for PAX8 inhibitor project, plate reader, dry powder samples (AID 743048); type: functional;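 also: HEK293 cells carrying a WT1 promoter luciferase reporter driven by expressed Pax2; potency is for inhibition of Pax2 driven reporter signal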
BJ [13] = assay: cells; type: functional, cell-based; settings: Homo sapiens
[14] = cytotoxicity in COV362 ovarian cancer cells, dose response, cytotoxicity control for PAX8 inhibitor project, cell-based, plate reader, dry powder, SA12 (AID 743144); type: functional
BJ [15] = assay: cytotoxicity toward BJ-TERT fibroblasts, dose response, cell-based, RAS-independent, luminescence (AID 1933); type: functional; settings: Homo sapiens
[16] = cytotoxicity in HEK-293T cells, dose response, cytotoxicity control for TCR NF-kB inhibitor project, luminescence, T-cell screen hits (AID 489026); type: functional, cell-based;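 also: cells exposed to compound about 14 hours before the viability readout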
[17] = cytotoxicity dependent on PAX8, dose response, cell-based, plate reader, dry powder (AID 743049); type: functional
[18] = IOSE-T80 ovarian epithelial cell cytotoxicity, dose response, cytotoxicity control for PAX8 inhibitor project, plate reader, dry powder samples (AID 743045); type: functional, cell-based
[19] = PAX5 activity inhibitors, dose response, selectivity assay for PAX8 inhibitor project, cell-based, plate reader, dry powder samples (AID 743047); type: functional;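 also: HEK293 cells carrying a Pax5 driven CD19 promoter luciferase reporter; potency of inhibitors that lower reporter luminescence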
[20] = IGROV1 ovarian cancer cell cytotoxicity, dose response, PAX8 inhibitor project, plate reader, dry powder samples (AID 743043); type: functional, cell-based; settings: IGROV-1
[21] = luciferase reporter signal reduction – luminescence, H4-C neuroglioblastoma cells, dose response (AID 2458); type: functional, cell-based;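 also: H4 neuroglioblastoma cells stably carrying a luciferase reporter gene fusion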
[22] = cytotoxicity in OV-90 ovarian cancer cells, dose response, PAX8 inhibitor project, cell-based, plate reader, dry powder, SA8 (AID 743149); type: functional
BJ [23] = assay: cytotoxicity toward BJ-TERT-LT-ST fibroblasts, dose response, cell-based, RAS-independent, luminescence (AID 1935); type: functional; settings: Homo sapiens;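 also: BJ fibroblasts immortalized with TERT plus LT and ST oncogenes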
Phospholipase A2 = Phospholipase A2 (Homo sapiens, UniProt P04054); assay: PLA2 enzyme inhibitors, dose response, counter-screen for ATG4B inhibitor project, biochemical, set 2 (AID 588586); type: functional
Chain of Phospholipase A2 (P04054 whole entry): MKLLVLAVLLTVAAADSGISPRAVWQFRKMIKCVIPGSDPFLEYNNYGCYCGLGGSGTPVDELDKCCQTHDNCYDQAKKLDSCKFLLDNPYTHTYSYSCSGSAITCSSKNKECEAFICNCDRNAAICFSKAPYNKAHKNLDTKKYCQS

[24] = biological target: Melanin-concentrating hormone receptor 1 (Homo sapiens, UniProt Q99705); assay: Late-stage fluorescence-based counterscreen for antagonists of the G-protein coupled receptor 7 (GPR7): cell-based dose response assay to identify antagonists of the melanin-concentrating hormone receptor 1 (MCHR1). [Related pubchem assays (depositor defined):AID1861, AID1880, AID1952, AID2148, AID2251, AID2257, AID485339]; type: functional;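 also: stimulated with 30 nM MCH peptide agonist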
Chain of Melanin-concentrating hormone receptor 1 (Q99705 whole entry): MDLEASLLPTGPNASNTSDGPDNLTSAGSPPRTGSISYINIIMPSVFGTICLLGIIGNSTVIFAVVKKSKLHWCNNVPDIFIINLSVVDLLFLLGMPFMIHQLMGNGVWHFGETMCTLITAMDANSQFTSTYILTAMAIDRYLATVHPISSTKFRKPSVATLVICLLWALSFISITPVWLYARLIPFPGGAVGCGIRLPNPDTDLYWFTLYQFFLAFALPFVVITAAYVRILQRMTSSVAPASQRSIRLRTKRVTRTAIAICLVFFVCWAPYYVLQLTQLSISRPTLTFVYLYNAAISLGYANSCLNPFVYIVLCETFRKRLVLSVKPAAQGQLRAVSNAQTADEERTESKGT

[25] = biological target: T3, Neuropeptides B/W receptor type 1 (Homo sapiens, UniProt P48145); assay: GPR7 antagonist potency, late-stage follow-up, cell-based, fluorescence, dose response (AID 463251); type: functional
T3 sequence (P48145 whole entry): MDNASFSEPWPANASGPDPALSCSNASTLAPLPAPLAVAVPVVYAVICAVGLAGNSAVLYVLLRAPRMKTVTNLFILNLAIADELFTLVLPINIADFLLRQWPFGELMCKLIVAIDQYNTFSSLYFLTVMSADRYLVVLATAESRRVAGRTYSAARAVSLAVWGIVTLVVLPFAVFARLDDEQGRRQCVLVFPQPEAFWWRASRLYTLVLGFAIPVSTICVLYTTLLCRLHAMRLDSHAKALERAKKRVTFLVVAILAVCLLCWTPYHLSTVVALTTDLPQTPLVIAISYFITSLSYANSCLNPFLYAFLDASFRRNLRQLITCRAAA

[26] = biological target: NACHT, LRR and PYD domains-containing protein 3 (Homo sapiens, UniProt Q96P20); assay: NALP3 inhibitors in yeast, dose response, luminescent (AID 488799); type: functional
Chain of NACHT, LRR and PYD domains-containing protein 3 (Q96P20 whole entry, the tested form may be a part): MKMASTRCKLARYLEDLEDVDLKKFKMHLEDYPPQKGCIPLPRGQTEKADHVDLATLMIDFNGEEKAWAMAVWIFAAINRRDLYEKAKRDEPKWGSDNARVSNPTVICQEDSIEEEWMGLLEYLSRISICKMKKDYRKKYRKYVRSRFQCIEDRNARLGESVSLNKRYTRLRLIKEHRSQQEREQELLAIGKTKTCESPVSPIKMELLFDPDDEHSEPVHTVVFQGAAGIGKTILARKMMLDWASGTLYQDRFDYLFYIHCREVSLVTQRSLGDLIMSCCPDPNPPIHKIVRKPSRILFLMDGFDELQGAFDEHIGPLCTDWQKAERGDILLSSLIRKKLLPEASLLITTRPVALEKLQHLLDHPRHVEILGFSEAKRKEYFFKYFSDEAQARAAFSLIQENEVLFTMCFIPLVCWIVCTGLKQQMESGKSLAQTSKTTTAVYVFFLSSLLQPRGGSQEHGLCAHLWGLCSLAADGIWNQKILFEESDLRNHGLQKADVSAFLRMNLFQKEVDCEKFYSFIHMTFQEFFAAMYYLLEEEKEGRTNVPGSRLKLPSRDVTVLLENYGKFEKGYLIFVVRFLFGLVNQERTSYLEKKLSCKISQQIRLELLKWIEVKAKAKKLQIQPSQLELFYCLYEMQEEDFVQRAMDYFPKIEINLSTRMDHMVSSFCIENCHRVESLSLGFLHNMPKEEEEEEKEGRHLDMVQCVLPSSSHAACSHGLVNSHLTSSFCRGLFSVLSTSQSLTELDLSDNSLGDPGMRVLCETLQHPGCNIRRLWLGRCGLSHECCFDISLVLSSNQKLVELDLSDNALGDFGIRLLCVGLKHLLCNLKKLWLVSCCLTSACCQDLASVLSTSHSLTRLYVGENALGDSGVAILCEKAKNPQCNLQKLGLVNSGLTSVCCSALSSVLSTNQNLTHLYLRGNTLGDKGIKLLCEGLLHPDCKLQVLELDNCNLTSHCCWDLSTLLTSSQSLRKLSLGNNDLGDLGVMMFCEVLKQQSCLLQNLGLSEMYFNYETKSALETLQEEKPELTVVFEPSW

FC(F)(F)c1cc(-c2ccco2)nc(NCc2ccc(Cl)cc2)n1
EC50 (Streptococcus [1]): > 150000 nM (not active)
EC50 [2]: 8270 nM (active)
EC50 (Streptococcus [3]): 9490 nM (active)
EC50 (Streptokinase A): 9320 nM (active)

CCCC1=Nc2cc(C(=O)NCCCOCC)ccc2Sc2ccccc21
AC50 [4]: 885 nM (active)
AC50 [5]: 5660 nM (active)
EC50 [6]: 740 nM (inconclusive)
AC50 [7]: 5370 nM (active)
AC50 [8]: 1300 nM (active)
IC50 [9]: 389 nM (active)
EC50 [10]: < 100 nM (active)
EC50 (cells): 985 nM (active)
IC50 (Cysteine protease ATG4B): 49000 nM (inactive)
EC50 [11]: 836 nM (active)
AC50 (Paired box protein Pax-8): 1740 nM (active)
AC50 [12]: 64000 nM (active)
EC50 (BJ [13]): 863 nM (inconclusive)
AC50 [14]: 1420 nM (active)
EC50 (BJ [15]): 586 nM (inconclusive)
IC50 [16]: > 80000 nM (inactive)
AC50 [17]: 7230 nM (active)
AC50 [18]: 1220 nM (active)
AC50 [19]: 1480 nM (active)
AC50 [20]: 7990 nM (active)
EC50 [21]: 592 nM (active)
AC50 [22]: 1360 nM (active)
EC50 (BJ [23]): 607 nM (inconclusive)
IC50 (Phospholipase A2): 48900 nM (inactive)

Cc1ccc(-n2ncc(Cl)c(Oc3ccc(OC(F)(F)F)cc3)c2=O)cc1
IC50 [24]: 2900 nM (active)
IC50 [25]: 880 nM (active)

O=C(NCCCc1ccccc1)c1c(O)nc2sccn2c1=O
IC50 [26]: 9610 nM (active)
